Experimental data from patent US9290740B2, “Use of basic fibroblast growth factor in the de-differentiation of animal connective tissue cells” (Worcester Polytechnic Institute, priority 2008, dated 2016).
“And” between values parts separate entries of the source, which are not always exact repeats. Equal entries are not always repeated.

What was measured:
Format in all cases: cell-based
[1] = tested on: adult human dermal fibroblasts (CRL-2352); assay: Effect of FGF2 and oxygen level on proliferation and in vitro lifespan (population doublings to senescence)
Experimental: Adult human fibroblasts (cell line CRL-2352) derived from connective tissue isolated from tissue derived from a below knee amputation of a person were received from American type Tissue Culture Collection (ATCC) (Manassas, Va.) as cryopreserved vials and were stored in liquid nitrogen until use. Cells were thawed at 37 C and added dropwise to 10 ml of basal culture medium (CM-1A, 45% DMEM without L-gln or phenol red (MediaTech, Manassas, Va.) with 4 mM L-Gln (MediaTech), 45% Hams F12 Medium (MediaTech), and 10% Fetalclone III (Hyclone, Logan, Utah)). The cell suspension was centrifuged at 700×g for 5 min, the medium aspirated and the pellet resuspended in fresh CM1A culture medium. Cells were seeded at a density of 0.5×106 in 10 ml of medium in T75 tissue culture flasks (BD Falcon). Cultures were carried out in a 37 C incubator in a humidified environment of 5% CO2, 5% O2, 90% N2. Cells were passaged at routine intervals at approximately 70-90% confluence using Trypsin-EDTA solution (MediaTech) diluted 1:5 in DPBS without Ca2+/Mg2+ (MediaTech). At each passage, cells were counted using a Levy Counting chamber (Hausser Scientific) and the number of population doublings calculated as log 2. For comparative studies, human recombinant FGF2 (either Invitrogen or Chemicon) was supplemented into CM1A at 4 ng/ml (medium designated CM2A) from a 100 μg/ml stock solution in DPBS (MediaTech).
Cells were passaged continuously at either 3 or 4 day intervals without interruption until in vitro senescence was reached. Two replicate T25 vessels of cells for each treatment (with or without FGF2) were seeded at each passage with 100,000 cells per vessel. The average number of population doublings (PDs) was calculated at each passage and cumulative PDs plotted versus time (days) in culture (FIG. 1).
Cells were thawed and seeded at equal density into T25 cell culture flasks (BD Falcon) and cultured at 37° C., 5% CO2, balance air (high O2); and 37° C., 5% CO2, 5% O2, 90% N2 (low O2). For each oxygen tension level, cells were also cultured with and without FGF2 (4 ng/ml). Cells were passaged at 3 or 4 day intervals, counted and 100,000 cells re-seeded at each passage. The number of population doublings at each passage was determined and cumulative population doublings compared between low and high O2 treatment groups. In addition, at day 28 of culture, FGF2 was removed from a population of cells and the culture continued to monitor the long term effect of previous culture with FGF2.
Primary adult human dermal fibroblasts from connective tissue isolated from tissue biopsy from a below knee amputation of a person were received from ATCC(CRL-2352) at passage 2. Cells were cultured in medium consisting of DMEM:Ham's F12 ([…], MediaTech) with 10% Fetalclone III (Hyclone, Logan, Utah). The DMEM (without L-Gln or phenol red) was supplemented with 4 mM fresh L-Gln (MediaTech) prior to use. Cultures were carried out in a 37° C. incubator in a humidified environment of 5% CO2, 5% O2, and 90% N2. The number of population doublings calculated as log2. Cells were seeded at 100,000 cells per T25 flask at each passage (Falcon). […] Human muscle derived fibroblasts were derived from surplus muscle tissue from the calf flexor muscle used for a surgical knee repair in an adult. Tissue was rinsed in Leibowitz L-15 medium (MediaTech) containing 10 μg/ml gentamicin (Invitrogen) and 2.5 μg/ml fungizone (Hyclone) and minced using a sterile scalpel and digested with 1800 units/ml collagenase Type IV for 1 hour at 37° C. Cell lines were established by culture at 5% O2 from the beginning and working stocks cryopreserved at passage 2.

[2] = tested on: Oct4, Sox2, Nanog, Rex1, Lin28, Klf4, TERT mRNA in adult human fibroblasts; assay: RT-PCR and qRT-PCR of stem cell gene transcripts
Experimental: RNA was extracted using TRIzol® reagent (Invitrogen) according to the manufacturer's protocol and quantified by spectrophotometry. 2 μg of RNA was subjected to DNase I digestion, followed by a reverse transcription using a QuantiTech® Reverse transcription kit (Qiagen) with a mixture of oligo-dT and random hexamers primers. 50 ng/well of cDNA was used as template in qPCR reactions with oligonucleotides specific for the genes of interest (Table 1 of Supplementary Information). A non-template control (NTC) and an RNA sample without RT for each sample were used to control for potential contaminating DNA. All qPCR reactions were performed in triplicate with the resultant values being combined into an average threshold cycle (CT). The efficiency of qPCR was calculated from the slope of a relative standard curve using GAPDH primers. Relative quantification was determined using a 7500 Real Time PCR system (Applied Biosystems) measuring SYBR green fluorescence (PerfeCTa™ SYBR Green FastMix, Low ROX (Quanta Biosciences)). Fold differences are calculated using the ΔΔCT method with the formula 2^−ΔΔCt. (Liss, B., “Improved quantitative real-time RT-PCR for expression profiling of individual cells”, Nucleic Acids Research 30(17), e89, 2002). Expression profiles for the mRNA transcripts are shown as fold differences in comparison to mRNA levels in control (untreated) fibroblast cells.
Total RNA was isolated using Trizol (Invitrogen) following the manufacturer's protocol. Four μg of total RNA was used to perform first strand cDNA synthesis using Superscript (Invitrogen). For RT-PCR, 0.5 μl of the first strand cDNA was used as template. PCR was performed in Mg^2+ free PCR buffer (TaKara) supplemented with 1.5 mM MgCl2, 200 μM each of dNTPs, 25 pmoles each of forward and reverse primers and 0.5 U of TaKara ExTaq polymerase per reaction. PCR cycling was done as follows: Initial denaturation at 95° C. for 2 minutes followed by 35 cycles of denaturation at 95° C. for 15 seconds; annealing at primer-specific annealing temperature for 1 minute; and extension at 72° C. for 1:30 minutes. Final extension was done at 72° C. for 10 minutes and the samples held at 4° C. until use. Amplification products were resolved on 2% agarose gels containing 0.5 μg/ml ethidium bromide in 1×TAE buffer and photographed using a Kodak […] Image Station.

[3] = tested on: adult human dermal fibroblasts (CRL-2352); assay: Effect of FGF2 and oxygen level on proliferation and in vitro lifespan (population doublings to senescence); conditions: FGF2 10 ng/ml
[4] = reduced oxygen culture plus FGF2

“FGF2: human recombinant FGF2 (Invitrogen, Chemicon or Protide), basic fibroblast growth factor” was tested, and the “population doublings at senescence, low O2 with FGF2” value ([1]; FGF2 4 ng/ml, 5% O2) was 65 PDs and 70 PDs, the “proliferation rate versus cells without FGF2” value ([1]; FGF2 4 ng/ml, 5% O2) was “proliferated more rapidly” and the “additional population doublings achieved by addition of FGF2 (on average)” value ([1]; FGF2 4 ng/ml, 5% O2, until replicative senescence) was 19 population doublings. For the same substance, the “population doublings at senescence, atmospheric oxygen with FGF2” value ([1]; FGF2 4 ng/ml, atmospheric oxygen) was 49 PDs and 50 PDs, the cell morphology ([1]; FGF2, 5% O2) was “smaller cells with a more spindle shape” and the karyotype ([1]; FGF2/low oxygen-treated fibroblasts) was “maintained normal karyotype”. The “increase in longevity / cell passage over primary cells cultured without these conditions” value ([1]; FGF2 and low oxygen conditions) was “two fold increase”, the “number of passages observed” value ([1]; FGF2 and low oxygen conditions, primary cells typically about 20 to 30) was 70 times and the “transcription of Oct4, Nanog and Klf4 (RT-PCR)” value ([2]; 5% oxygen, FGF2 supplemented, day 7) was “increased”. The “transcription of Sox2, Rex1 and Lin28 (RT-PCR)” value ([2]; 5% oxygen, day 7) was “significant transcriptional dependence on FGF2”, the “Lin28 mRNA levels (qRT-PCR)” value [2, 4] was “further increased” and the “Rex1 and TERT mRNA (qRT-PCR)” value [2, 4] was “not further affected”. The “effect on adult fibroblast proliferation at 10 ng/ml” value [3] was “halted adult fibroblast proliferation”.
